{"source": "patent US20150289512A1", "about": "“METHOD FOR PROMOTING PLANT GROWTH” (SUMITOMO CHEMICAL COMPANY, LIMITED, priority 2012, published 2015)", "data": [{"tested_on": "Nicotiana benthamiana", "test": "Test Example 5: growth promotion under low-temperature stress by hydroponics of Nicotiana benthamiana, 1 ppm", "assay_type": "in vivo", "conditions": "1 ppm in medium, low-temperature stress 7 days at 1.5±1.0° C., green leaf area 3 days later, equation (1)", "outline": "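Seeds were grown in half-strength Murashige–Skoog medium (pH 5.8) containing 1 ppm compound for 7 days at 22 °C, then chilled 7 days at 1.5±1.0 °C and recovered 3 days at 22 °C. Green leaf area was imaged. Relative leaf area = 100×(treated − untreated)/(unstressed untreated − stressed untreated).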", "units": {"relative leaf area (% of untreated control) at 1 ppm": "%"}, "values": [{"smiles": "O=C(O)c1oc2ccccc2c1C(F)(F)F", "note": "[Compound 82]", "relative leaf area (% of untreated control) at 1 ppm": "≥ 5"}, {"smiles": "COC(=O)c1oc2ccc(C(F)(F)F)cc2c1N(C(C)=O)C(C)=O", "note": "[Compound 64]", "relative leaf area (% of untreated control) at 1 ppm": "≥ 5"}, {"smiles": "Cc1c(C(=O)O)oc2ccccc12", "note": "[Compound 36]", "relative leaf area (% of untreated control) at 1 ppm": "≥ 5"}, {"smiles": "NC(=O)c1oc2ccc(C(F)(F)F)cc2c1C(F)(F)F", "note": "[Compound 74]", "relative leaf area (% of untreated control) at 1 ppm": "≥ 5"}, {"smiles": "O=C(Oc1ccccc1)c1cc2cc(C(F)(F)F)ccc2o1", "note": "[Compound 55]", "relative leaf area (% of untreated control) at 1 ppm": "≥ 5"}, {"smiles": "COC(=O)c1oc2ccc(C(F)(F)F)cc2c1NC(=O)C(F)(F)F", "note": "[Compound 65]", "relative leaf area (% of untreated control) at 1 ppm": "≥ 5"}, {"smiles": "COC(=O)c1oc2ccc(C(F)(F)F)cc2c1NS(=O)(=O)c1ccccc1", "note": "[Compound 68]", "relative leaf area (% of untreated control) at 1 ppm": "≥ 5"}, {"smiles": "COC(=O)c1oc2ccccc2c1C(F)(F)F", "note": "[Compound 83]", "relative leaf area (% of untreated control) at 1 ppm": "≥ 5"}, {"smiles": "Cc1c(C(=O)O)oc2ccc(C(F)(F)F)cc12", "note": "[Compound 34]", "relative leaf area (% of untreated control) at 1 ppm": "≥ 5"}, {"smiles": "O=C(Nc1ccccc1)c1cc2cc(C(F)(F)F)ccc2o1", "note": "[Compound 53]", "relative leaf area (% of untreated control) at 1 ppm": "≥ 5"}, {"smiles": "O=C(O)c1nc2c(F)cc(F)cc2s1", "note": "[Compound 86]", "relative leaf area (% of untreated control) at 1 ppm": "≥ 5"}, {"smiles": "O=C(OCc1ccccc1)c1cc2cc(C(F)(F)F)ccc2o1", "note": "[Compound 56]", "relative leaf area (% of untreated control) at 1 ppm": "≥ 5"}, {"smiles": "O=C(O)c1oc2ccc(C(F)(F)F)cc2c1C(F)(F)F", "note": "[Compound 69]", "relative leaf area (% of untreated control) at 1 ppm": "≥ 5"}, {"smiles": "COC(=O)c1nc2cc(C(F)(F)F)ccc2o1", "note": "[Compound 17, methyl 5-trifluoromethylbenzoxazole-2-carboxylate]", "relative leaf area (% of untreated control) at 1 ppm": "≥ 5"}, {"smiles": "COC(=O)c1oc2ccccc2c1C", "note": "[Compound 37]", "relative leaf area (% of untreated control) at 1 ppm": "≥ 5"}, {"smiles": "O=C(NCc1ccccc1)c1oc2ccc(C(F)(F)F)cc2c1C(F)(F)F", "note": "[Compound 77]", "relative leaf area (% of untreated control) at 1 ppm": "≥ 5"}, {"smiles": "COC(=O)c1oc2ccc(C(F)(F)F)cc2c1C(F)(F)F", "note": "[Compound 70]", "relative leaf area (% of untreated control) at 1 ppm": "≥ 5"}, {"smiles": "NC(=O)c1cc2cc(C(F)(F)F)ccc2o1", "note": "[Compound 51]", "relative leaf area (% of untreated control) at 1 ppm": "≥ 5"}, {"smiles": "CNC(=O)c1cc2cc(C(F)(F)F)ccc2o1", "note": "[Compound 52]", "relative leaf area (% of untreated control) at 1 ppm": "≥ 5"}]}, {"tested_on": "Corn seeds (variety: Pioneer 120 31P41)", "test": "Test Example 14: growth promotion under low-temperature stress by soil drench treatment of corn", "assay_type": "in vivo", "conditions": "Zea mays, 120 h; soil drench 20 ml, concentration tested 3 ppm; low-temperature stress 5 days at 2.5° C.; health score 0-5, average of 4 individuals; read-out: Relative value of score (%- untreated control plot)", "outline": "(§1)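 7-day-old corn seedlings soil-drenched with 20 ml compound solution (from 1,000× DMSO stock in water; control 0.1% DMSO), grown 2 days at 27 °C, then 5 days at 2.5 °C, then 4 days recovery at 27 °C. Health scored 1–5 by number of leaves ≥⅔ healthy; mean of 4 plants.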", "units": {"change in vivo at 3 ppm": "%"}, "values": [{"smiles": "COC(=O)c1nc2cc(C(F)(F)F)ccc2o1", "note": "[Compound 17, methyl 5-trifluoromethylbenzoxazole-2-carboxylate]", "change in vivo at 3 ppm": "> 5"}]}, {"tested_on": "Corn seeds (variety: Pioneer 120 31P41)", "test": "Test Example 14: growth promotion under low-temperature stress by soil drench treatment of corn", "assay_type": "in vivo", "conditions": "Zea mays, 120 h; soil drench 20 ml, concentration tested 10 ppm; low-temperature stress 5 days at 2.5° C.; health score 0-5, average of 4 individuals; read-out: Relative value of score (%- untreated control plot)", "outline": "as §1", "units": {"change in vivo at 10 ppm": "%"}, "values": [{"smiles": "COC(=O)c1cc2ccccc2o1", "note": "[Compound 1]", "change in vivo at 10 ppm": "> 5"}, {"smiles": "O=C(O)c1oc2ccccc2c1C(F)(F)F", "note": "[Compound 82]", "change in vivo at 10 ppm": "> 5"}, {"smiles": "COC(=O)c1oc2ccc(C(F)(F)F)cc2c1O", "note": "[Compound 50]", "change in vivo at 10 ppm": "> 5"}, {"smiles": "Cc1c(C(=O)O)oc2ccc(C(F)(F)F)cc12", "note": "[Compound 34]", "change in vivo at 10 ppm": "> 5"}, {"smiles": "COC(=O)c1cc2cc(C(F)(F)F)ccc2o1", "note": "[Compound 3, methyl 5-(trifluoromethyl)benzofuran-2-carboxylate]", "change in vivo at 10 ppm": "> 5"}, {"smiles": "NC(=O)c1oc2ccccc2c1C(F)(F)F", "note": "[Compound 85]", "change in vivo at 10 ppm": "> 5"}, {"smiles": "COC(=O)c1cc2c(C(F)(F)F)cccc2o1", "note": "[Compound 45]", "change in vivo at 10 ppm": "> 5"}]}]}
